Data as given in patent US9193719B2, “1,2,4-triazol-5-ones and analogs exhibiting anti-cancer and anti-proliferative activities” (Deciphera Pharmaceuticals, LLC, priority 2013, dated 2015).

How the values were obtained:
[1] = test system: M-NFS-60 cells; experiment: M-NFS-60 cell proliferation assay (resazurin); type: cell-based; details: 67 h incubation
Protocol: M-NFS-60 cells (catalog #CRL-1838) were obtained from the American Type Culture Collection (ATCC, Manassas, Va.). Briefly, cells were grown in suspension in RPMI 1640 medium supplemented with 10% characterized fetal bovine serum (Invitrogen, Carlsbad, Calif.), 0.05 mM 2-mercaptoethanol, and 20 ng/mL mouse recombinant macrophage colony stimulating factor (M-CSF) at 37° C., 5% CO2, and 95% humidity. Cells were allowed to expand until reaching saturation at which point they were subcultured or harvested for assay use.
M-NFS-60 Cell Proliferation Assay
A serial dilution of test compound was dispensed into a 384-well black clear bottom plate (Corning, Corning, N.Y.). Two thousand five hundred cells were added per well in 50 μL complete growth medium. Plates were incubated for 67 h at 37° C., 5% CO2, and 95% humidity. At the end of the incubation period 10 μL of a 440 μM solution of resazurin (Sigma, St. Louis, Mo.) in PBS was added to each well and incubated for an additional 5 h at 37° C., 5% CO2, and 95% humidity. Plates were read on a Synergy2 reader (Biotek, Winooski, Vt.) using an excitation of 540 nm and an emission of 600 nm. IC50 values were calculated from a series of percent inhibition values determined at a range of inhibitor concentrations using software routines as implemented in the GraphPad Prism software package.

[2] = molecular target: T1, unphosphorylated c-KIT kinase (uKIT, Seq. ID no. 2) (Homo sapiens, UniProt P10721); experiment: uKit kinase enzymatic assay (pyruvate kinase/lactate dehydrogenase coupled); type: biochemical; details: ATP 2000 μM, rate 3 to 4 h
T1 construct: uKit with N-terminal GST fusion used for screening
Protocol: uKit Kinase (Seq. ID No. 2) Assay
Activity of unphosphorylated c-KIT kinase (uKIT, Seq. ID no. 2) was determined by following the production of ADP from the KIT kinase reaction with ATP and poly E4Y as substrates through coupling with the pyruvate kinase/lactate dehydrogenase system (e.g., Schindler et al. Science (2000) 289: 1938-1942). In this assay, the oxidation of NADH (thus the decrease at A340 nm) was continuously monitored spectrophometrically. The reaction mixture (100 μl) contained unphosphorylated KIT (12 nM), polyE4Y (1 mg/mL), MgCl2 (10 mM), pyruvate kinase (4 units), lactate dehydrogenase (0.7 units), phosphoenol pyruvate (1 mM), and NADH (0.28 mM) and ATP (2000 μM) in 90 mM Tris buffer containing 0.2% octyl-glucoside and 1% DMSO, pH 7.5. The inhibition reaction was started by mixing serial diluted test compound with the above reaction mixture. The absorption at 340 nm was monitored continuously for 4 hours at 30° C. on Synergy 2 plate reader (BioTech). Reaction rates around 3 to 4 h time frame were used to calculate % inhibitions, from which IC50 values were generated.

T1 sequence (P10721 with tags, fused parts or gaps): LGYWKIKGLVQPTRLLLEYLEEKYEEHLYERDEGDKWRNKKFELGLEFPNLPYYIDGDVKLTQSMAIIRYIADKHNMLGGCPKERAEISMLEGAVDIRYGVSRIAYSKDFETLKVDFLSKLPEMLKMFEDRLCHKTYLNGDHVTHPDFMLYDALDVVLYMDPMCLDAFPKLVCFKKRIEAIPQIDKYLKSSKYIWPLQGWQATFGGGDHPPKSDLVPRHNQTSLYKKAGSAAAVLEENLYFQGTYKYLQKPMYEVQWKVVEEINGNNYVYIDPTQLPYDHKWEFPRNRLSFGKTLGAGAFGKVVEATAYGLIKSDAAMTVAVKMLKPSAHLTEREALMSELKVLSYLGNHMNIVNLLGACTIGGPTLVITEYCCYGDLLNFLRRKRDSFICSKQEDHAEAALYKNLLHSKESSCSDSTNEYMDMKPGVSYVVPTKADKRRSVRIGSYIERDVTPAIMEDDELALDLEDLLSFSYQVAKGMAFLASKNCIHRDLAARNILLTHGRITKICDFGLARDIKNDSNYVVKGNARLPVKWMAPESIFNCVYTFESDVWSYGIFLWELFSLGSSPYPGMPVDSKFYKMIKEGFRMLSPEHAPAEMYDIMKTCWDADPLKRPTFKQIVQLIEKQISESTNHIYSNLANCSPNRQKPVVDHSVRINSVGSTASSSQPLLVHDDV

Cc1nc(-n2nc(Cc3ccc(F)cc3)[nH]c2=O)ccc1Oc1ccnc(-c2cnn(C)c2)c1 [Example 1, 3-(4-fluorobenzyl)-1-(6-methyl-5-((2-(1-methyl-1H-pyrazol-4-yl)pyridin-4-yl)oxy)pyridin-2-yl)-1H-1,2,4-triazol-5(4H)-one]
IC50 [1]: 10 to 100 nM | IC50 [2]: 100 to 1000 nM

Cc1nc(-n2nc(Cc3ccccc3)[nH]c2=O)ccc1Oc1ccnc(-c2cnn(C)c2)c1 [Example 2, 3-benzyl-1-(6-methyl-5-((2-(1-methyl-1H-pyrazol-4-yl)pyridin-4-yl)oxy)pyridin-2-yl)-1H-1,2,4-triazol-5(4H)-one]
IC50 [1]: 10 to 100 nM | IC50 [2]: 100 to 1000 nM

Cn1cc(-c2cc(Oc3ccc(-n4nc(Cc5ccc(F)cc5)[nH]c4=O)nc3)ccn2)cn1 [Example 3, 3-(4-fluorobenzyl)-1-(5-((2-(1-methyl-1H-pyrazol-4-yl)pyridin-4-yl)oxy)pyridin-2-yl)-1H-1,2,4-triazol-5(4H)-one]
IC50 [1]: 10 to 100 nM | IC50 [2]: 10 to 100 nM

Cn1cc(-c2cc(Oc3ccc(-n4nc(C(C)(C)C)[nH]c4=O)nc3)ccn2)cn1 [Example 4, 3-(tert-butyl)-1-(5-((2-(1-methyl-1H-pyrazol-4-yl)pyridin-4-yl)oxy)pyridin-2-yl)-1H-1,2,4-triazol-5(4H)-one]
IC50 [1]: 10 to 100 nM | IC50 [2]: 10 to 100 nM

Cc1nc(-n2nc(C(C)C)[nH]c2=O)ccc1Oc1ccnc(-c2cnn(C)c2)c1 [Example 5, 3-isopropyl-1-(6-methyl-5-((2-(1-methyl-1H-pyrazol-4-yl)pyridin-4-yl)oxy)pyridin-2-yl)-1H-1,2,4-triazol-5(4H)-one]
IC50 [1]: 10 to 100 nM | IC50 [2]: 100 to 1000 nM

Cc1nc(-n2nc(C3CCCCC3)[nH]c2=O)ccc1Oc1ccnc(-c2cnn(C)c2)c1 [Example 6, 3-cyclohexyl-1-(6-methyl-5-((2-(1-methyl-1H-pyrazol-4-yl)pyridin-4-yl)oxy)pyridin-2-yl)-1H-1,2,4-triazol-5(4H)-one]
IC50 [1]: ≤ 10 nM | IC50 [2]: 10 to 100 nM

Cc1cc(-c2cc(Oc3ccc(-n4nc(C(C)(C)C)[nH]c4=O)nc3C)ccn2)ccn1 [Example 9, 3-(tert-butyl)-1-(6-methyl-5-((2′-methyl-[2,4′-bipyridin]-4-yl)oxy)pyridin-2-yl)-1H-1,2,4-triazol-5(4H)-one]
IC50 [1]: 10 to 100 nM | IC50 [2]: 100 to 1000 nM

Cc1ccc(-c2cc(Oc3ccc(-n4nc(C(C)(C)C)[nH]c4=O)nc3C)ccn2)cn1 [Example 10, 3-(tert-butyl)-1-(6-methyl-5-((6′-methyl-[2,3′-bipyridin]-4-yl)oxy)pyridin-2-yl)-1H-1,2,4-triazol-5(4H)-one]
IC50 [1]: 10 to 100 nM | IC50 [2]: > 1000 nM

Cc1nc(-n2nc(C(C)(C)C)n(C)c2=O)ccc1Oc1ccnc(-c2cnn(C)c2)c1 [Example 13, 3-(tert-butyl)-4-methyl-1-(6-methyl-5-((2-(1-methyl-1H-pyrazol-4-yl)pyridin-4-yl)oxy)pyridin-2-yl)-1H-1,2,4-triazol-5(4H)-one]
IC50 [1]: 100 to 1000 nM | IC50 [2]: 100 to 1000 nM

Cc1nc(-n2nc(C(C)(C)C)[nH]c2=O)ccc1Oc1ccnc(-c2ccc(C3CCN(C)CC3)cc2)c1 [Example 14, 3-(tert-butyl)-1-(6-methyl-5-((2-(4-(1-methylpiperidin-4-yl)phenyl)pyridin-4-yl)oxy)pyridin-2-yl)-1H-1,2,4-triazol-5(4H)-one]
IC50 [1]: 10 to 100 nM | IC50 [2]: 10 to 100 nM

COC(C)(C)c1nn(-c2ccc(Oc3ccnc(-c4cnn(C)c4)c3)c(C)n2)c(=O)[nH]1 [Example 16, 3-(2-methoxypropan-2-yl)-1-(6-methyl-5-((2-(1-methyl-1H-pyrazol-4-yl)pyridin-4-yl)oxy)pyridin-2-yl)-1H-1,2,4-triazol-5(4H)-one]
IC50 [1]: 100 to 1000 nM | IC50 [2]: > 1000 nM

Cc1nc(-n2nc(C3CCOCC3)[nH]c2=O)ccc1Oc1ccnc(-c2cnn(C)c2)c1 [Example 20, 1-(6-methyl-5-((2-(1-methyl-1H-pyrazol-4-yl)pyridin-4-yl)oxy)pyridin-2-yl)-3-(tetrahydro-2H-pyran-4-yl)-1H-1,2,4-triazol-5(4H)-one]
IC50 [1]: 100 to 1000 nM | IC50 [2]: 100 to 1000 nM

Cc1nc(-n2nc(CC(C)C)[nH]c2=O)ccc1Oc1ccnc(-c2cnn(C)c2)c1 [Example 22, 3-isobutyl-1-(6-methyl-5-((2-(1-methyl-1H-pyrazol-4-yl)pyridin-4-yl)oxy)pyridin-2-yl)-1H-1,2,4-triazol-5(4H)-one]
IC50 [1]: ≤ 10 nM | IC50 [2]: 10 to 100 nM

CCC(C)(C)c1nn(-c2ccc(Oc3ccnc(-c4cnn(C)c4)c3)c(C)n2)c(=O)[nH]1 [Example 25, 1-(6-methyl-5-((2-(1-methyl-1H-pyrazol-4-yl)pyridin-4-yl)oxy)pyridin-2-yl)-3-(tert-pentyl)-1H-1,2,4-triazol-5(4H)-one]
IC50 [1]: 10 to 100 nM | IC50 [2]: 10 to 100 nM

Cc1nc(-n2nc(C3(C)CC3)[nH]c2=O)ccc1Oc1ccnc(-c2cnn(C)c2)c1 [Example 27, 1-(6-methyl-5-((2-(1-methyl-1H-pyrazol-4-yl)pyridin-4-yl)oxy)pyridin-2-yl)-3-(1-methylcyclopropyl)-1H-1,2,4-triazol-5(4H)-one]
IC50 [1]: 10 to 100 nM | IC50 [2]: 100 to 1000 nM

Cc1nc(-n2nc(C(C)(C)C)[nH]c2=O)ccc1Oc1ccnc(NC(=O)N(C)C)c1 [Example 30, 3-(4-((6-(3-(tert-butyl)-5-oxo-4,5-dihydro-1H-1,2,4-triazol-1-yl)-2-methylpyridin-3-yl)oxy)pyridin-2-yl)-1,1-dimethylurea]
IC50 [1]: > 1000 nM | IC50 [2]: > 1000 nM

Cc1cc(-n2nc(C(C)(C)C)[nH]c2=O)ncc1Oc1ccnc(-c2cnn(C)c2)c1 [Example 31, 3-(tert-butyl)-1-(4-methyl-5-((2-(1-methyl-1H-pyrazol-4-yl)pyridin-4-yl)oxy)pyridin-2-yl)-1H-1,2,4-triazol-5(4H)-one]
IC50 [1]: 10 to 100 nM | IC50 [2]: 10 to 100 nM

Cc1cc(-n2nc(C(C)(C)C)[nH]c2=O)nc(C)c1Oc1ccnc(-c2cnn(C)c2)c1 [Example 33, 3-(tert-butyl)-1-(4,6-dimethyl-5-((2-(1-methyl-1H-pyrazol-4-yl)pyridin-4-yl)oxy)pyridin-2-yl)-1H-1,2,4-triazol-5(4H)-one]
IC50 [1]: 100 to 1000 nM | IC50 [2]: 100 to 1000 nM

Cc1nc(-n2nc(CC(C)(C)C)[nH]c2=O)ccc1Oc1ccnc(-c2cnn(C)c2)c1 [Example 36, 1-(6-methyl-5-((2-(1-methyl-1H-pyrazol-4-yl)pyridin-4-yl)oxy)pyridin-2-yl)-3-neopentyl-1H-1,2,4-triazol-5(4H)-one]
IC50 [1]: 10 to 100 nM | IC50 [2]: 10 to 100 nM

Cc1nc(-n2nc(C3CCC3)[nH]c2=O)ccc1Oc1ccnc(-c2cnn(C)c2)c1 [Example 37, 3-cyclobutyl-1-(6-methyl-5-((2-(1-methyl-1H-pyrazol-4-yl)pyridin-4-yl)oxy)pyridin-2-yl)-1H-1,2,4-triazol-5(4H)-one]
IC50 [1]: 10 to 100 nM | IC50 [2]: 100 to 1000 nM

CCn1cc(-c2cc(Oc3ccc(-n4nc(C(C)(C)C)[nH]c4=O)nc3C)ccn2)cn1 [Example 38, 3-(tert-butyl)-1-(5-((2-(1-ethyl-1H-pyrazol-4-yl)pyridin-4-yl)oxy)-6-methylpyridin-2-yl)-1H-1,2,4-triazol-5(4H)-one]
IC50 [1]: 10 to 100 nM | IC50 [2]: > 1000 nM

Cc1nc(-n2nc(C(C)(C)C)[nH]c2=O)ccc1Oc1ccnc(-c2cnco2)c1 [Example 39, 3-(tert-butyl)-1-(6-methyl-5-((2-(oxazol-5-yl)pyridin-4-yl)oxy)pyridin-2-yl)-1H-1,2,4-triazol-5(4H)-one]
IC50 [1]: 10 to 100 nM | IC50 [2]: > 1000 nM

Cc1nc(-n2nc(C3(C(F)(F)F)CCC3)[nH]c2=O)ccc1Oc1ccnc(-c2cnn(C)c2)c1 [Example 43, 1-(6-methyl-5-((2-(1-methyl-1H-pyrazol-4-yl)pyridin-4-yl)oxy)pyridin-2-yl)-3-(1-(trifluoromethyl)cyclobutyl)-1H-1,2,4-triazol-5(4H)-one]
IC50 [1]: 100 to 1000 nM | IC50 [2]: 10 to 100 nM

COCC(C)(C)c1nn(-c2ccc(Oc3ccnc(-c4cnn(C)c4)c3)c(C)n2)c(=O)[nH]1 [Example 46, 3-(1-methoxy-2-methylpropan-2-yl)-1-(6-methyl-5-((2-(1-methyl-1H-pyrazol-4-yl)pyridin-4-yl)oxy)pyridin-2-yl)-1H-1,2,4-triazol-5(4H)-one]
IC50 [1]: 100 to 1000 nM | IC50 [2]: 100 to 1000 nM

Cc1nc(-n2nc(C(C)(C)C)[nH]c2=O)ccc1Oc1cc(-c2cnn(C)c2)ncn1 [Example 47, 3-(tert-butyl)-1-(6-methyl-5-((6-(1-methyl-1H-pyrazol-4-yl)pyrimidin-4-yl)oxy)pyridin-2-yl)-1H-1,2,4-triazol-5(4H)-one]
IC50 [1]: 100 to 1000 nM | IC50 [2]: > 1000 nM
